System: Human neonatal epidermal keratinocytes (HEK)
Test: Evaluation of calcium influx in human neonatal epidermal keratinocytes (fluo 3-AM, confocal microscope)
Format: cell-based
Settings: theanine 2.5 mM, theanine derivative 0.5 mM, 5 minutes, then fluo 3-AM 15 minutes, FIG. 4
Method: Stabilized human neonatal epidermal keratinocytes (HEK, Lonza, NHEK-Neo-Neonatal Normal Human Epidermal Keratinocytes, Pooled) are dispensed in a confocal dish at a density of 2×10^4 cells per well and treated with theanine (2.5 mM) and the theanine derivative (0.5 mM) for 5 minutes and then with […] fluo 3-AM for 15 minutes. The fluo 3 decomposed in the cells and combined with calcium is observed with a confocal microscope (Nikon, Japan) to measure the difference of fluorescence and evaluate the migration of calcium in the cells.

In the case of CCNC(=O)CC[C@H](N)C(=O)O [theanine], the “migration of calcium in the cells” value is reported as “definitely different behaviors from each other”.

Source: patent US9192791B2, “Topical composition containing theanine derivatives for use on skin” (AMOREPACIFIC CORPORATION, priority 2011, dated 2015)
